According to PubChem BioAssay (NCI):
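Protocol summary: plate cells (96-well), add compound at 5 concentrations, incubate 48 h, interpolate endpoints linearly. GI50 marks 50% less growth. TGI: concentration producing complete growth inhibition.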

What was measured:
Assay in all cases: growth of human tumour cells (NCI), 48 h
SK-MEL-5 melanoma = tested on: SK-MEL-5 melanoma
MDA-MB-231 breast = tested on: MDA-MB-231 breast
OVCAR-3 ovarian = tested on: OVCAR-3 ovarian
NCI-H460 lung = tested on: NCI-H460 lung
OVCAR-4 ovarian = tested on: OVCAR-4 ovarian
MDA-MB-435 = tested on: MDA-MB-435
NCI-H23 lung = tested on: NCI-H23 lung
NCI-H522 lung = tested on: NCI-H522 lung
CCRF-CEM leukemia = tested on: CCRF-CEM leukemia
HOP-92 NSCLC = tested on: HOP-92 NSCLC
IGROV1 ovarian = tested on: IGROV1 ovarian
OVCAR-5 ovarian = tested on: OVCAR-5 ovarian
SNB-19 CNS = tested on: SNB-19 CNS
RPMI-8226 leukemia = tested on: RPMI-8226 leukemia
T-47D breast = tested on: T-47D breast
HCC-2998 colon = tested on: HCC-2998 colon
SR leukemia = tested on: SR leukemia
HCT-15 colon = tested on: HCT-15 colon
HS 578T breast = tested on: HS 578T breast
BT-549 breast = tested on: BT-549 breast
M14 melanoma = tested on: M14 melanoma
DU-145 prostate = tested on: DU-145 prostate
EKVX NSCLC = tested on: EKVX NSCLC
786-0 renal = tested on: 786-0 renal
MOLT-4 leukemia = tested on: MOLT-4 leukemia
SNB-75 CNS = tested on: SNB-75 CNS
HCT-116 colon = tested on: HCT-116 colon
OVCAR-8 ovarian = tested on: OVCAR-8 ovarian
SF-295 CNS = tested on: SF-295 CNS
LOX IMVI melanoma = tested on: LOX IMVI melanoma
SF-539 CNS = tested on: SF-539 CNS
K-562 leukemia = tested on: K-562 leukemia
MCF7 breast = tested on: MCF7 breast
A498 renal = tested on: A498 renal
UO-31 renal = tested on: UO-31 renal
A549 NSCLC = tested on: A549 NSCLC
PC-3 prostate = tested on: PC-3 prostate
NCI/ADR-RES ovarian = tested on: NCI/ADR-RES ovarian
ACHN renal = tested on: ACHN renal
HL-60(TB) leukemia = tested on: HL-60(TB) leukemia
SK-MEL-2 melanoma = tested on: SK-MEL-2 melanoma
RXF 393 renal = tested on: RXF 393 renal
CAKI-1 renal = tested on: CAKI-1 renal
SK-OV-3 ovarian = tested on: SK-OV-3 ovarian
SF-268 CNS = tested on: SF-268 CNS
UACC-257 melanoma = tested on: UACC-257 melanoma
SW-620 colon = tested on: SW-620 colon
U251 CNS = tested on: U251 CNS
NCI-H226 lung = tested on: NCI-H226 lung
SN12C renal = tested on: SN12C renal
KM12 colon = tested on: KM12 colon
MALME-3M melanoma = tested on: MALME-3M melanoma
UACC-62 melanoma = tested on: UACC-62 melanoma
TK-10 renal = tested on: TK-10 renal
HOP-62 NSCLC = tested on: HOP-62 NSCLC
SK-MEL-28 melanoma = tested on: SK-MEL-28 melanoma
COLO 205 colon = tested on: COLO 205 colon

Nc1ncnc2c1c(C(F)(F)F)cn2[C@@H]1O[C@H](CO)[C@@H](O)[C@H]1O
GI50 (SK-MEL-5 melanoma): 402 nM | TGI (SK-MEL-5 melanoma): 5020 nM | GI50 (MDA-MB-231 breast): 652 nM | TGI (MDA-MB-231 breast): > 100000 nM | GI50 (OVCAR-3 ovarian): 398 nM | TGI (OVCAR-3 ovarian): > 100000 nM | GI50 (NCI-H460 lung): 262 nM | TGI (NCI-H460 lung): > 43600 nM | GI50 (OVCAR-4 ovarian): 1030 nM | TGI (OVCAR-4 ovarian): > 100000 nM | GI50 (MDA-MB-435): 66 nM | TGI (MDA-MB-435): 2080 nM | GI50 (NCI-H23 lung): 153 nM | TGI (NCI-H23 lung): 5290 nM | GI50 (NCI-H522 lung): 319 nM | TGI (NCI-H522 lung): 3150 nM | GI50 (CCRF-CEM leukemia): 102 nM | TGI (CCRF-CEM leukemia): > 100000 nM | GI50 (HOP-92 NSCLC): 222 nM | TGI (HOP-92 NSCLC): 6620 nM | GI50 (IGROV1 ovarian): 619 nM | TGI (IGROV1 ovarian): > 100000 nM | GI50 (OVCAR-5 ovarian): 1020 nM | TGI (OVCAR-5 ovarian): > 72200 nM | GI50 (SNB-19 CNS): 793 nM | TGI (SNB-19 CNS): > 100000 nM | GI50 (RPMI-8226 leukemia): 151 nM | TGI (RPMI-8226 leukemia): 1820 nM | GI50 (T-47D breast): 104 nM | TGI (T-47D breast): 70800 nM | GI50 (HCC-2998 colon): 633 nM | TGI (HCC-2998 colon): 12800 nM | GI50 (SR leukemia): 341 nM | GI50 (HCT-15 colon): 197 nM | TGI (HCT-15 colon): > 100000 nM | GI50 (HS 578T breast): 813 nM | TGI (HS 578T breast): 7540 nM | GI50 (BT-549 breast): 192 nM | TGI (BT-549 breast): 3440 nM | GI50 (M14 melanoma): 41.9 nM | TGI (M14 melanoma): 1910 nM | GI50 (DU-145 prostate): 94.5 nM | TGI (DU-145 prostate): > 100000 nM | GI50 (EKVX NSCLC): 1230 nM | TGI (EKVX NSCLC): > 27300 nM | GI50 (786-0 renal): 2150 nM | TGI (786-0 renal): > 100000 nM | GI50 (MOLT-4 leukemia): 324 nM | TGI (MOLT-4 leukemia): 1480 nM | GI50 (SNB-75 CNS): 708 nM | TGI (SNB-75 CNS): 3620 nM | GI50 (HCT-116 colon): 213 nM | TGI (HCT-116 colon): > 100000 nM | GI50 (OVCAR-8 ovarian): 595 nM | TGI (OVCAR-8 ovarian): > 100000 nM | GI50 (SF-295 CNS): 442 nM | TGI (SF-295 CNS): > 23300 nM | GI50 (LOX IMVI melanoma): 51 nM | TGI (LOX IMVI melanoma): > 100000 nM | GI50 (SF-539 CNS): 642 nM | TGI (SF-539 CNS): 2730 nM | GI50 (K-562 leukemia): 304 nM | TGI (K-562 leukemia): 1410 nM | GI50 (MCF7 breast): 40.5 nM | TGI (MCF7 breast): > 86300 nM | GI50 (A498 renal): 93.6 nM | TGI (A498 renal): 1950 nM | GI50 (UO-31 renal): 928 nM | TGI (UO-31 renal): 5010 nM | GI50 (A549 NSCLC): 324 nM | TGI (A549 NSCLC): > 56100 nM | GI50 (PC-3 prostate): 72.5 nM | GI50 (NCI/ADR-RES ovarian): 363 nM | TGI (NCI/ADR-RES ovarian): > 100000 nM | GI50 (ACHN renal): 183 nM | TGI (ACHN renal): > 100000 nM | GI50 (HL-60(TB) leukemia): 212 nM | TGI (HL-60(TB) leukemia): 492 nM | GI50 (SK-MEL-2 melanoma): 953 nM | TGI (SK-MEL-2 melanoma): 2790 nM | GI50 (RXF 393 renal): 237 nM | TGI (RXF 393 renal): 1670 nM | GI50 (CAKI-1 renal): 490 nM | TGI (CAKI-1 renal): > 100000 nM | GI50 (SK-OV-3 ovarian): 2490 nM | TGI (SK-OV-3 ovarian): > 100000 nM | GI50 (SF-268 CNS): 1190 nM | TGI (SF-268 CNS): > 26300 nM | GI50 (UACC-257 melanoma): 306 nM | GI50 (SW-620 colon): 64.4 nM | TGI (SW-620 colon): > 100000 nM | GI50 (U251 CNS): 1330 nM | TGI (U251 CNS): > 89600 nM | GI50 (NCI-H226 lung): 1120 nM | TGI (NCI-H226 lung): 79700 nM | GI50 (SN12C renal): 157 nM | TGI (SN12C renal): > 100000 nM | GI50 (KM12 colon): 134 nM | GI50 (MALME-3M melanoma): 104 nM | TGI (MALME-3M melanoma): 2510 nM | GI50 (UACC-62 melanoma): 60.1 nM | TGI (UACC-62 melanoma): 1780 nM | GI50 (TK-10 renal): 926 nM | TGI (TK-10 renal): > 100000 nM | GI50 (HOP-62 NSCLC): 278 nM | TGI (HOP-62 NSCLC): > 100000 nM | GI50 (SK-MEL-28 melanoma): 1290 nM | TGI (SK-MEL-28 melanoma): 6130 nM | GI50 (COLO 205 colon): 73.1 nM | TGI (COLO 205 colon): 1400 nM
